The record followed here is ChEMBL document CHEMBL2321687, “Identification of a novel arylpiperazine scaffold for fatty acid amide hydrolase inhibition with improved drug disposition properties” (Bioorg Med Chem Lett, 2013).

Activity calls are given as the source filed them. The calls are words filed in the database; no cut-off is given here.

For assay [1], the target named is T1, Fatty-acid amide hydrolase 1 (Mus musculus, UniProt O08914).
T1 sequence (O08914 whole entry): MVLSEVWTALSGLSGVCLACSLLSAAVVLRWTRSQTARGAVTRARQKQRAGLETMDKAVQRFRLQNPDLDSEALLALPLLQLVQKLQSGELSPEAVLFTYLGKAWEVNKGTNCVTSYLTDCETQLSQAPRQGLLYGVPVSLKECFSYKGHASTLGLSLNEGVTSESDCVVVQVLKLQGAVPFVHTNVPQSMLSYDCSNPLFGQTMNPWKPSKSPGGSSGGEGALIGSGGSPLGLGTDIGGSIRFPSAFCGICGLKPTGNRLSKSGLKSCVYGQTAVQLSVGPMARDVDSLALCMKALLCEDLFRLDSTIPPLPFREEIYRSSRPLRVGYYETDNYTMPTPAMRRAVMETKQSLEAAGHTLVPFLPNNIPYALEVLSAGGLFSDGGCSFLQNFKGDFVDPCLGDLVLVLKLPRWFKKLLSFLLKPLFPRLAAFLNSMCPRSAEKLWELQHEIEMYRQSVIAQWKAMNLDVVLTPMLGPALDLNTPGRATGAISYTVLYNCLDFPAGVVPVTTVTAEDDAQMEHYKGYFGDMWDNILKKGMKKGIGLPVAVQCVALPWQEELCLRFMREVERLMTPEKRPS
The assay is described as follows: Inhibition of FAAH in mouse brain homogenate using [3Hethanolamine]AEA as substrate incubated for 20 mins prior to substrate addition measured after 15 mins by beta counting analysis. It counts as tissue-based.

Assay [2] deals with T2, Fatty-acid amide hydrolase 1 (Homo sapiens, UniProt O00519).
T2 sequence (O00519 whole entry): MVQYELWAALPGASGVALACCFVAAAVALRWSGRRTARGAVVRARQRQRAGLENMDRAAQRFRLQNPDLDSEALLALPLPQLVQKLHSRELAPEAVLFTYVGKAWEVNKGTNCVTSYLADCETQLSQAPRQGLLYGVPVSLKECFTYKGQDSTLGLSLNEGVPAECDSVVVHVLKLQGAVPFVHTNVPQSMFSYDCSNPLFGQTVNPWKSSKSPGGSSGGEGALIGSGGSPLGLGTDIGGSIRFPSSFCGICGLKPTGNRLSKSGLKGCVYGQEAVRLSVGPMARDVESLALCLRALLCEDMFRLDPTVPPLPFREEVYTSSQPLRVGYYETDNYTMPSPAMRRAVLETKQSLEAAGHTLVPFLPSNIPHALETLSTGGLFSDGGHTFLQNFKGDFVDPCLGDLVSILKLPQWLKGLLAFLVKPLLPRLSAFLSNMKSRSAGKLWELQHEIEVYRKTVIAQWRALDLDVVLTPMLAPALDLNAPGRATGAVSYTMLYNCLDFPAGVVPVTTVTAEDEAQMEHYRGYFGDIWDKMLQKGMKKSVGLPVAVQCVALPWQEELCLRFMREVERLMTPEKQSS
Briefly: Inhibition of human FAAH using [3Hethanolamine]AEA as substrate incubated for 20 mins prior to substrate addition measured after 15 mins by beta counting analysis.

Assay [3] has as its target Fatty-acid amide hydrolase 1 (Mus musculus) (UniProt O08914). The assay is described as follows: Reversible noncompetitive inhibition of FAAH in mouse brain homogenate using [3Hethanolamine]AEA as substrate incubated for 20 mins prior to dialysis for 18 hrs followed by substrate addition measured after 15 mins. It counts as tissue-based.

In general, Ki refers to the equilibrium dissociation constant of an inhibitor or competing ligand from its target. `CCCCOc1ccc(NC(=O)Oc2cccc(N3CCNCC3)c2)cc1`: the Ki in assay [1] was more than 500 nM.

For the compound `Fc1ccc(OCCCCOc2cccc(N3CCNCC3)c2)cc1`, the Ki in assay [1] is more than 500 nM.

In turn, `C/C(=N\OC(=O)N1CCCCC1)c1cccc(N2CCN(C)CC2)c1` came in with a Ki in assay [1] of more than 500 nM.

As to `CN1CCN(c2cccc(OC(=O)NCCCCCCc3ccccc3)c2)CC1`, the inhibition constant Ki in assay [1] came out at 240 nM.

What is called IC50 is the midpoint of a concentration-inhibition curve. `NC(=O)c1ccn(-c2cccc(N3CCN(CCCCCCc4ccccc4)CC3)c2)c1` gave a Ki in assay [1] of 10 nM. Besides, the concentration for half-maximal inhibition (IC50) in assay [2] is more than 1000 nM. The inhibition result in assay [3] was “Active”.

The compound `O=C(NCCCCCCc1ccccc1)Oc1cccc(N2CCNCC2)c1` displayed a Ki in assay [1] of 13 nM. Moreover, in assay [2], the concentration for half-maximal inhibition (IC50) came to 44 nM and the inhibition constant Ki stood at 26 nM. In addition, the inhibition result in assay [3] was “Active”.

`NC(=O)c1ccn(-c2cccc(N3CCN(C(=O)NCCCCCCc4ccccc4)CC3)c2)c1` yielded an inhibition constant Ki in assay [1] of more than 500 nM.

In assay [1], `O=C(NCCCCCCc1ccccc1)N1CCN(c2cccc(-n3cccc3)c2)CC1` gave an inhibition constant Ki of 263 nM.

`NC(=O)c1ccn(-c2cccc(C(=O)N3CCN(CCCCCCc4ccccc4)CC3)c2)c1` yielded an inhibition constant Ki in assay [1] of more than 500 nM.

Compound `N#Cc1ccn(-c2cccc(N3CCN(CCCCCCc4ccccc4)CC3)c2)c1` yielded an inhibition constant Ki in assay [1] of 270 nM.
